In patent publication US20210070684A1, “PRODUCTION OF HIGHLY PURE META,META-COUPLED BIS(4-ALKYLPHENOL) DERIVATIVES AND USES THEREOF” (KATHOLIEKE UNIVERSITEIT LEUVEN, priority 2017, published 2021):

melting point: 134 to 136 °C
Compound: COc1cc(C)c(Cc2cc(O)c(OC)cc2C)cc1O [Reference Example 1, 5,5′-methylenebis(2-methoxy-4-methylphenol)]
